PMC9078697, “Discovery and preliminary SAR of 14-aryloxy-andrographolide derivatives as antibacterial agents with immunosuppressant activity” (RSC Advances, 2018)
Read-outs that look alike come from different tables or passages of the source.

Legend:
AD-293 cells [1] = test: Cytotoxicity (MTT) in AD-293 cells; type: cell-based; conditions: treated for 24 h
[2] = system: IL-6/STAT3 signaling pathway; test: IL-6/STAT3 luciferase reporter assay in AD-293 cells; type: cell-based; conditions: AD-293 reporter cells, 2.5 μg mL−1 IL-6, treated for 16 h
Text: (§1) We utilized luciferase reporters bearing the promoter regions of TNF-α/NF-κB, TLR4/NF-κB, and IL-6/STAT3 ([ref. 25]) to examine the activities of the antibacterial active andrographolide analogs in the regulation of signaling pathways that govern inflammatory response (Table 2). […] Like their similarity in inhibitory activity against E. faecalis, E. coli and S. aureus (Table 1), 3-keto-19-alcohol compound 9b1 suppresses three signaling pathways in the same fashion as 6b17 (Table 2). […] Cells from the AD-293 cell line, a derivative of the HEK293 cell line with improved adherence and plaque formation properties, were purchased from Stratagene (La Jolla, CA, USA). The protocols were adopted and modified from our previous report.[25] All compounds were dissolved in DMSO at 10 mM as a stock solution. The final concentration of DMSO was 0.1% in the culture medium. AD-293 cells bearing luciferase reporters with promoter regions of IL-6/STAT3 and TNF-α/NF-κB in pGL4.20 vector (Promega) were maintained in DMEM high glucose medium supplemented with 10% FBS and 1% penicillin streptomycin in the presence of 1 μg mL^−1 puromycin. AD-293 cells overexpressing TLR4 and stably transfected with NF-κB reporter were maintained in DMEM high glucose medium in the presence of 1 μg mL^−1 puromycin and 10 μg mL^−1 blasticidin. All cells were maintained in a humidified incubator at 37 °C in 95% air and 5% CO2. Reporter cells were treated with 50 ng mL^−1 TNF-α to stimulate the NF-κB signaling pathway, 1 μg mL^−1 LPS to stimulate the TLR4/NF-κB signaling pathway, and 2.5 μg mL^−1 IL-6 to stimulate the IL-6/STAT3 signaling pathway. The medium was removed at the end of the treatment, cell extracts were prepared, and the luciferase activity was measured using a Luciferase assay kit (Promega) according to the manufacturer's instructions. EC50 was defined as the concentration of drug that inhibited stimulator-triggered luciferase reporter activation by 50% after continuous drug exposure for 4 (TNF-α/NF-κB) or 16 (IL-6/STAT3 and TLR4/NF-κB) hours. Each concentration was repeated 3 times independently.

[3] = system: TNF-α/NF-κB signaling pathway; test: TNF-α/NF-κB luciferase reporter assay in AD-293 cells; type: cell-based; conditions: AD-293 reporter cells, 50 ng mL−1 TNF-α, treated for 4 h
Text: as §1

[4] = system: TLR4/NF-κB signaling pathway; test: TLR4/NF-κB luciferase reporter assay in AD-293 cells; type: cell-based; conditions: AD-293 reporter cells, 1 μg mL−1 LPS, treated for 16 h
Text: as §1

S. aureus = test: Bacteriostatic screening (growth, OD630) against S. aureus; type: cell-based; conditions: for inhibition rate (%) SA / inhibition at 250 µM: at 250 μM of the tested compound; for IC50 / inhibition at 250 µM: Staphylococcus aureus; for IC50: 24 h, IC50 generated when inhibition at 250 μM was higher than 80%; for inhibition at 250 µM: read-out: inhibition rate (%) SA
Method: (§2) The strategy in this study was to submit these synthesized compounds to a preliminary screening test against E. coli, S. aureus and E. faecalis (ciprofloxacin was used as a reference compound; see Table 1). […] The tested compound or ciprofloxacin (positive drug) was dissolved in DMSO and diluted with LB liquid medium into a stock solution containing 20% DMSO before use; the stock solution of the carrier was 20% DMSO in LB liquid medium. All the experiments, including blank controls, were performed in triplicate. Bacteriostatic screening was performed by applying a modified protocol of the National Committee on Clinical Laboratory Standards (NCCLS).[29] Briefly, E. coli, S. aureus and E. faecalis cells (American Type Culture Collection, ATCC) were grown in LB plate medium for one passage, then seeded in LB liquid medium and cultured at 37 °C for 12 h. After being diluted 1000 times, 190 μL diluted cells were aliquoted to 96-well plates; then, 10 μL stock solution of carrier or a gradient amount of the tested compound or the positive compound, ciprofloxacin, were added; the final concentration of DMSO was 1% in all wells. The blank controls contained 1% DMSO and LB medium but no bacterial cells.

E. coli = test: Bacteriostatic screening (growth, OD630) against E. coli; type: cell-based; conditions: for inhibition rate (%) EC / inhibition at 250 µM: at 250 μM of the tested compound; for IC50 / inhibition at 250 µM: Escherichia coli; for IC50: 24 h, IC50 generated when inhibition at 250 μM was higher than 80%; for inhibition at 250 µM: read-out: inhibition rate (%) EC
Method: as §2

E. faecalis = test: Bacteriostatic screening (growth, OD630) against E. faecalis; type: cell-based; conditions: for IC50: 24 h, IC50 generated when inhibition at 250 μM was higher than 80%
Method: as §2

AD-293 cells [5] = system: AD-293 cells; parameters: method as in PMID 28680097; conditions: treated for 24 h; cited from earlier work
[6] = system: TLR4/NF-κB signaling pathway; parameters: method as in PMID 28680097; conditions: AD-293 reporter cells; treated for 16 h; cited from earlier work
[7] = system: IL-6/STAT3 signaling pathway; parameters: method as in PMID 28680097; conditions: AD-293 reporter cells; treated for 16 h; cited from earlier work
[8] = system: TNF-α/NF-κB signaling pathway; parameters: method as in PMID 28680097; conditions: AD-293 reporter cells; treated for 4 h; cited from earlier work
[9] = Cytotoxicity (MTT) in AD-293 cells; type: cell-based; conditions: human, AD-293 cells (HEK293 derivative), treated for 24 h

| Compound | CC50 (AD-293 cells [1]) [µM] | EC50 [2] [µM] | EC50 [3] [µM] | EC50 [4] [µM] | inhibition rate (%) SA (S. aureus) | inhibition rate (%) EC (E. coli) | IC50 (E. faecalis) [µM] | CC50 at 24 h [9] [µM] | EC50 ([2]; Homo sapiens, AD293) [µM] | melting point [°C] | EC50 ([3]; Homo sapiens, AD293) [µM] | EC50 ([4]; Homo sapiens, AD293) [µM] | IC50 (E. faecalis; Enterococcus faecalis) [µM] | inhibition at 250 µM (S. aureus) [%] | inhibition at 250 µM (E. coli) [%] | also measured |
| --- | --- | --- | --- | --- | --- | --- | --- | --- | --- | --- | --- | --- | --- | --- | --- | --- |
| C=C1CCC2C3(C)COC(C)(C)OC3CCC2(C)C1CC=C1C(=O)OCC1Oc1cccc2cccnc12 (stereo not drawn) [5b17, (14β)-(Quinolyl-8′-oxy)-3,19-acetonylidene andrographolide] | > 10 | 6.35 ± 0.77 | 2.45 ± 0.49 | 2.85 ± 0.07 | (27) % | (47) % | 19.3 ± 2.3 | – | – | – | – | – | – | – | – | – |
| C=C1CCC2C(C)(CO)C(O)CCC2(C)C1CC=C1C(=O)OCC1Oc1cccc2cccnc12 (stereo not drawn) [6a17, (14α)-(Quinolyl-8′-oxy)andrographolide] | > 10 | 5.62 ± 0.13 | > 10 | > 10 | (66) % | (70) % | 16.3 ± 2.1 | – | – | – | – | – | – | – | – | – |
| C=C1CCC2C(C)(CO)C(O)CCC2(C)C1CC=C1C(=O)OCC1Oc1ccc([N+](=O)[O-])cc1OC (stereo not drawn) [6b3, (14β)-(2′-Methoxy-4′-nitro)phenoxy-andrographolide] | – | – | – | – | – | – | 140 ± 11.9 | – | – | – | – | – | – | – | – | CC50 (AD-293 cells [5]): > 10 µM; EC50 [6]: 3.49 ± 0.34 µM; inhibition rate (%) SA (S. aureus; 250 µM): (44) %; EC50 [7]: > 10 µM; EC50 [8]: 8.97 ± 1.03 µM |
| C=C1CC[C@@H]2[C@](C)(CO)[C@H](O)CC[C@@]2(C)[C@@H]1C/C=C1/C(=O)OC[C@@H]1Oc1cccc2cccnc12 [6b17, (14β)-(Quinolyl-8′-oxy)andrographolide] | – | – | – | – | – | – | – | > 10 | 2.41 ± 0.31 | 134 to 136 | 2 ± 0.28 | 2.65 ± 0.07 | 6.3 ± 1.5 | – | – | IC50 (S. aureus): 37.5 ± 2.2 µM; IC50 (E. coli): 21.6 ± 1.7 µM; times more active than 5b17 against E. faecalis (E. faecalis; versus 5b17): 3 times |
| C=C1CC[C@@H]2[C@](C)(COC(C)=O)[C@H](O)CC[C@@]2(C)[C@@H]1C/C=C1/C(=O)OC[C@@H]1Oc1cccc2cccnc12 [7b1, (14β)-(quinolyl-8′-oxy)-19-acetoxy andrographolide] | – | – | – | – | – | – | – | > 10 | > 10 | – | 4.91 ± 0.02 | > 10 | 8.6 ± 0.7 | 58 | 60 | – |
| C=C1CC[C@@H]2[C@](C)(CO[Si](C)(C)C(C)(C)C)[C@H](O)CC[C@@]2(C)[C@@H]1C/C=C1/C(=O)OC[C@@H]1Oc1cccc2cccnc12 [7b2, (14β)-(quinolyl-8′-oxy)-19-(t-butyldimethylsilyloxy)andrographolide] | – | – | – | – | – | – | – | – | – | 149 to 151 | – | – | 26.2 ± 2.8 | 23 | 24 | – |
| C=C1CC[C@H]2[C@@](C)(CCC(=O)[C@@]2(C)COC(C)=O)[C@@H]1C/C=C1/C(=O)OC[C@@H]1Oc1cccc2cccnc12 [8b1, (14β)-(quinolyl-8′-oxy)-3-keto-19-acetoxy andrographolide] | – | – | – | – | – | – | – | > 10 | > 10 | – | > 10 | 4.84 ± 0.31 | 7.6 ± 0.8 | 42 | 34 | – |
| C=C1CC[C@H]2[C@@](C)(CCC(=O)[C@@]2(C)CO)[C@@H]1C/C=C1/C(=O)OC[C@@H]1Oc1cccc2cccnc12 [9b, (14β)-(quinolyl-8′-oxy)-3-keto andrographolide] | – | – | – | – | – | – | – | > 10 | 6.13 ± 0.39 | 141 to 143 | 2.03 ± 0.01 | 5.96 ± 0.03 | 9.1 ± 2.1 | – | – | IC50 (S. aureus): 27.6 ± 1.8 µM; IC50 (E. coli): 27.9 ± 1.5 µM |
| C=C1CC[C@@H]2[C@](C)(CO)[C@H](O)CC[C@@]2(C)[C@@H]1C/C=C1/C(=O)OC[C@H]1O [compound 1, Andrographolide] | – | – | – | – | – | – | – | > 10 | > 10 | – | > 10 | > 10 | – | – | – | – |
| (14α)-(Quinolyl-8′-oxy)-3,19-acetonylidene andrographolide [5a17] | > 10 | 4.71 ± 0.17 | > 10 | > 10 | (35) % | (44) % | 10.4 ± 2.5 | – | – | – | – | – | – | – | – | – |
